Some results are limits rather than exact numbers.

The term EC50 denotes the concentration needed to bring the measured effect to its halfway point. A low value points to greater potency.

Muscarinic acetylcholine receptor, sequence (Q8VH26 whole entry): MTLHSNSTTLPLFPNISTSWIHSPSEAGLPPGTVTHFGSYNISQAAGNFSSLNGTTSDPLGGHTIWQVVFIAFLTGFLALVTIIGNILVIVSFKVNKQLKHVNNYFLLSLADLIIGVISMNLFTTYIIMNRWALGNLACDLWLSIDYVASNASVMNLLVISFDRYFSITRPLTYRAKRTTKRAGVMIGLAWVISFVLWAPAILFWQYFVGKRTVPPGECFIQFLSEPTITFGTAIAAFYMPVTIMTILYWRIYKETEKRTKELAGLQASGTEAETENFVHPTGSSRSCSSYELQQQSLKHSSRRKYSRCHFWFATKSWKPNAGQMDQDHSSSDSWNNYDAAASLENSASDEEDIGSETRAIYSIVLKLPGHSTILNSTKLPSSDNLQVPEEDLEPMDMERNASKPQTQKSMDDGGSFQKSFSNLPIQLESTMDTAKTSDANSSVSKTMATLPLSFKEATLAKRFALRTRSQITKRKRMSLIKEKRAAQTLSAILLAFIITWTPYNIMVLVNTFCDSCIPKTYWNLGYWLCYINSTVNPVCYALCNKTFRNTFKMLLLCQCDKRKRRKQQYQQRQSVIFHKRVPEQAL

This experiment concerns the target Muscarinic acetylcholine receptor (Cavia porcellus, UniProt Q8VH26). Put plainly: Muscarinic acetylcholine receptor M3 agonistic/antagonistic activity in guinea pig ileum.
`CC(C#CCN1CCCC1)N1CCCC1=O` (stereo not drawn) had a concentration giving a half-maximal response (EC50) of less than 1 nM.

Regarding `CC(C#CCN1CCCC1)N1CCNC1=O` (stereo not drawn), the EC50 was less than 1 nM.

Regarding `CC(C#CCN1CCCC1)N(C)C(N)=O` (stereo not drawn), the EC50 is less than 1 nM.
